{"source": "paper PMC10657444", "about": "“Design and evaluation of tadpole-like conformational antimicrobial peptides” (Communications Biology, 2023)", "key": {"[1]": {"tested_on": "K. pneumoniae ATCC 700603", "test": "microbe, parasite or virus in culture", "format": "cell-based, Klebsiella pneumoniae", "protocol": "(§1) MRSA USA 300 and K. pneumoniae ATCC 700603 were employed to assess the development of resistance. From inoculated microtiter panels, an aliquot of the well with the highest concentration permitting growth was taken and back diluted in fresh media to a turbidity of a 0.5 McFarland standard. This suspension was then further diluted and used to inoculate a fresh MIC panel resulting in a final concentration of 5 × 10^6 CFU/mL. Panels were incubated according to CLSI guidelines (M07, 11th edition, 2018), MICs were recorded and the next inoculum was prepared from the well containing the highest concentration of drug that allowed growth in identical fashion as described above."}, "MRSA USA 300": {"tested_on": "MRSA USA 300", "test": "microbe, parasite or virus in culture", "format": "cell-based, Staphylococcus aureus", "protocol": "as §1"}}, "note": "Non-standard residues stand in square brackets, D forms with d. Residues, ends and D or L forms follow the SMILES beside them.", "data": [{"molecule": "CC[C@@H](C)[C@@H](NC(=O)[C@@H](Cc1ccccc1)NC(=O)[C@@H](Cc1ccccc1)NC(=O)[C@@H](Cc1ccccc1)NC(=O)[C@H](N)Cc1ccccc1)C(=O)N[C@H](CCCNC(=N)N)C(=O)N[C@H](CCCNC(=N)N)C(=O)N[C@H](CC(C)C)C(=O)N[C@H](Cc1ccccc1)C(=O)N[C@H](CCCNC(=N)N)C(N)=O", "note": "[RI-HT2] (H-[dF][dF][dF][dF][dI][dR][dR][dL][dF][dR]-NH2; N-terminus assumed)", "values": [{"measurement": "Concentration (MIC in drug resistance assay)", "setting": "[1]; K. pneumoniae ATCC 700603, day 22", "value": 25, "unit": "µg/mL"}, {"measurement": "Concentration (MIC in drug resistance assay)", "setting": "[1]; K. pneumoniae ATCC 700603, day 23", "value": 25, "unit": "µg/mL"}, {"measurement": "Concentration (MIC in drug resistance assay)", "setting": "[1]; K. pneumoniae ATCC 700603, day 24", "value": 25, "unit": "µg/mL"}, {"measurement": "Concentration (MIC in drug resistance assay)", "setting": "[1]; K. pneumoniae ATCC 700603, day 25", "value": 25, "unit": "µg/mL"}, {"measurement": "Concentration (MIC in drug resistance assay)", "setting": "[1]; K. pneumoniae ATCC 700603, day 26", "value": 12.5, "unit": "µg/mL"}, {"measurement": "Concentration (MIC in drug resistance assay)", "setting": "[1]; K. pneumoniae ATCC 700603, day 27", "value": 25, "unit": "µg/mL"}, {"measurement": "Concentration (MIC in drug resistance assay)", "setting": "[1]; K. pneumoniae ATCC 700603, day 28", "value": 25, "unit": "µg/mL"}, {"measurement": "Concentration (MIC in drug resistance assay)", "setting": "[1]; K. pneumoniae ATCC 700603, day 29", "value": 25, "unit": "µg/mL"}, {"measurement": "Concentration (MIC in drug resistance assay)", "setting": "[1]; K. pneumoniae ATCC 700603, day 30", "value": 25, "unit": "µg/mL"}, {"measurement": "Concentration (MIC in drug resistance assay)", "setting": "[1]; K. pneumoniae ATCC 700603, day 31", "value": 25, "unit": "µg/mL"}, {"measurement": "Concentration (MIC in drug resistance assay)", "setting": "[1]; K. pneumoniae ATCC 700603, day 32", "value": 12.5, "unit": "µg/mL"}, {"measurement": "Concentration (MIC in drug resistance assay)", "setting": "[1]; K. pneumoniae ATCC 700603, day 33", "value": 25, "unit": "µg/mL"}, {"measurement": "Concentration (MIC in drug resistance assay)", "setting": "[1]; K. pneumoniae ATCC 700603, day 34", "value": 12.5, "unit": "µg/mL"}, {"measurement": "Concentration (MIC in drug resistance assay)", "setting": "[1]; K. pneumoniae ATCC 700603, day 35", "value": 25, "unit": "µg/mL"}, {"measurement": "Concentration (MIC in drug resistance assay)", "setting": "[1]; K. pneumoniae ATCC 700603, day 36", "value": 25, "unit": "µg/mL"}, {"measurement": "Concentration (MIC in drug resistance assay)", "setting": "[1]; K. pneumoniae ATCC 700603, day 37", "value": 12.5, "unit": "µg/mL"}, {"measurement": "Concentration (MIC in drug resistance assay)", "setting": "[1]; K. pneumoniae ATCC 700603, day 38", "value": 25, "unit": "µg/mL"}, {"measurement": "Concentration (MIC in drug resistance assay)", "setting": "[1]; K. pneumoniae ATCC 700603, day 39", "value": 25, "unit": "µg/mL"}, {"measurement": "Concentration (MIC in drug resistance assay)", "setting": "[1]; K. pneumoniae ATCC 700603, day 40", "value": 12.5, "unit": "µg/mL"}, {"measurement": "increase in MIC after 40 passages", "setting": "[1]; serial passage at sub-MIC", "value": "four-fold"}, {"measurement": "Concentration (MIC in drug resistance assay)", "setting": "MRSA USA 300; MRSA USA 300, day 0", "value": 2, "unit": "µg/mL"}, {"measurement": "Concentration (MIC in drug resistance assay)", "setting": "MRSA USA 300; MRSA USA 300, day 1", "value": 2, "unit": "µg/mL"}, {"measurement": "Concentration (MIC in drug resistance assay)", "setting": "MRSA USA 300; MRSA USA 300, day 2", "value": 2, "unit": "µg/mL"}, {"measurement": "Concentration (MIC in drug resistance assay)", "setting": "MRSA USA 300; MRSA USA 300, day 3", "value": 2, "unit": "µg/mL"}, {"measurement": "Concentration (MIC in drug resistance assay)", "setting": "MRSA USA 300; MRSA USA 300, day 4", "value": 4, "unit": "µg/mL"}, {"measurement": "Concentration (MIC in drug resistance assay)", "setting": "MRSA USA 300; MRSA USA 300, day 5", "value": 2, "unit": "µg/mL"}, {"measurement": "Concentration (MIC in drug resistance assay)", "setting": "MRSA USA 300; MRSA USA 300, day 6", "value": 2, "unit": "µg/mL"}, {"measurement": "Concentration (MIC in drug resistance assay)", "setting": "MRSA USA 300; MRSA USA 300, day 7", "value": 4, "unit": "µg/mL"}, {"measurement": "Concentration (MIC in drug resistance assay)", "setting": "MRSA USA 300; MRSA USA 300, day 8", "value": 4, "unit": "µg/mL"}, {"measurement": "Concentration (MIC in drug resistance assay)", "setting": "MRSA USA 300; MRSA USA 300, day 9", "value": 8, "unit": "µg/mL"}, {"measurement": "Concentration (MIC in drug resistance assay)", "setting": "MRSA USA 300; MRSA USA 300, day 10", "value": 4, "unit": "µg/mL"}, {"measurement": "Concentration (MIC in drug resistance assay)", "setting": "MRSA USA 300; MRSA USA 300, day 11", "value": 4, "unit": "µg/mL"}, {"measurement": "Concentration (MIC in drug resistance assay)", "setting": "MRSA USA 300; MRSA USA 300, day 12", "value": 4, "unit": "µg/mL"}, {"measurement": "Concentration (MIC in drug resistance assay)", "setting": "MRSA USA 300; MRSA USA 300, day 13", "value": 4, "unit": "µg/mL"}, {"measurement": "Concentration (MIC in drug resistance assay)", "setting": "MRSA USA 300; MRSA USA 300, day 14", "value": 4, "unit": "µg/mL"}, {"measurement": "Concentration (MIC in drug resistance assay)", "setting": "MRSA USA 300; MRSA USA 300, day 15", "value": 8, "unit": "µg/mL"}, {"measurement": "Concentration (MIC in drug resistance assay)", "setting": "MRSA USA 300; MRSA USA 300, day 16", "value": 4, "unit": "µg/mL"}, {"measurement": "Concentration (MIC in drug resistance assay)", "setting": "MRSA USA 300; MRSA USA 300, day 17", "value": 4, "unit": "µg/mL"}, {"measurement": "Concentration (MIC in drug resistance assay)", "setting": "MRSA USA 300; MRSA USA 300, day 18", "value": 8, "unit": "µg/mL"}, {"measurement": "Concentration (MIC in drug resistance assay)", "setting": "MRSA USA 300; MRSA USA 300, day 19", "value": 8, "unit": "µg/mL"}, {"measurement": "Concentration (MIC in drug resistance assay)", "setting": "MRSA USA 300; MRSA USA 300, day 20", "value": 8, "unit": "µg/mL"}, {"measurement": "Concentration (MIC in drug resistance assay)", "setting": "MRSA USA 300; MRSA USA 300, day 21", "value": 4, "unit": "µg/mL"}, {"measurement": "Concentration (MIC in drug resistance assay)", "setting": "MRSA USA 300; MRSA USA 300, day 22", "value": 8, "unit": "µg/mL"}, {"measurement": "Concentration (MIC in drug resistance assay)", "setting": "MRSA USA 300; MRSA USA 300, day 23", "value": 8, "unit": "µg/mL"}, {"measurement": "Concentration (MIC in drug resistance assay)", "setting": "MRSA USA 300; MRSA USA 300, day 24", "value": 4, "unit": "µg/mL"}, {"measurement": "Concentration (MIC in drug resistance assay)", "setting": "MRSA USA 300; MRSA USA 300, day 25", "value": 8, "unit": "µg/mL"}, {"measurement": "Concentration (MIC in drug resistance assay)", "setting": "MRSA USA 300; MRSA USA 300, day 26", "value": 4, "unit": "µg/mL"}, {"measurement": "Concentration (MIC in drug resistance assay)", "setting": "MRSA USA 300; MRSA USA 300, day 27", "value": 8, "unit": "µg/mL"}, {"measurement": "Concentration (MIC in drug resistance assay)", "setting": "MRSA USA 300; MRSA USA 300, day 28", "value": 8, "unit": "µg/mL"}, {"measurement": "Concentration (MIC in drug resistance assay)", "setting": "MRSA USA 300; MRSA USA 300, day 29", "value": 8, "unit": "µg/mL"}, {"measurement": "Concentration (MIC in drug resistance assay)", "setting": "MRSA USA 300; MRSA USA 300, day 30", "value": 8, "unit": "µg/mL"}, {"measurement": "Concentration (MIC in drug resistance assay)", "setting": "MRSA USA 300; MRSA USA 300, day 31", "value": 8, "unit": "µg/mL"}, {"measurement": "Concentration (MIC in drug resistance assay)", "setting": "MRSA USA 300; MRSA USA 300, day 32", "value": 4, "unit": "µg/mL"}, {"measurement": "Concentration (MIC in drug resistance assay)", "setting": "MRSA USA 300; MRSA USA 300, day 33", "value": 8, "unit": "µg/mL"}, {"measurement": "Concentration (MIC in drug resistance assay)", "setting": "MRSA USA 300; MRSA USA 300, day 34", "value": 8, "unit": "µg/mL"}, {"measurement": "Concentration (MIC in drug resistance assay)", "setting": "MRSA USA 300; MRSA USA 300, day 35", "value": 8, "unit": "µg/mL"}, {"measurement": "Concentration (MIC in drug resistance assay)", "setting": "MRSA USA 300; MRSA USA 300, day 36", "value": 8, "unit": "µg/mL"}, {"measurement": "Concentration (MIC in drug resistance assay)", "setting": "MRSA USA 300; MRSA USA 300, day 37", "value": 8, "unit": "µg/mL"}, {"measurement": "Concentration (MIC in drug resistance assay)", "setting": "MRSA USA 300; MRSA USA 300, day 38", "value": 8, "unit": "µg/mL"}, {"measurement": "Concentration (MIC in drug resistance assay)", "setting": "MRSA USA 300; MRSA USA 300, day 39", "value": 8, "unit": "µg/mL"}, {"measurement": "Concentration (MIC in drug resistance assay)", "setting": "MRSA USA 300; MRSA USA 300, day 40", "value": 4, "unit": "µg/mL"}, {"measurement": "increase in MIC after 40 passages", "setting": "MRSA USA 300; serial passage at sub-MIC", "value": "four-fold"}]}]}
